Measurements taken from patent US5254590A, “Acylaminophenol compounds” (Adir et Compagnie, priority 1991, dated 1993).

What was measured:
[1] = target: T1, acyl CoA-cholesterol-acyl transferase (ACAT) (Mus musculus, UniProt Q61263); assay: Determination of ACAT: inhibition of esterification of free intracellular cholesterol in macrophage line J 774; assay type: cell-based; details: J774; macrophage line J 774, 24 hours, 10^-5 M, relative to placebo; read-out: percentage inhibition of ACAT activity of the macrophages
T1 construct: in the presence of a macrophage J 774 homogenate; endogenous in cells; host or cells: J774 macrophage line
T1 sequence (Q61263 1-540): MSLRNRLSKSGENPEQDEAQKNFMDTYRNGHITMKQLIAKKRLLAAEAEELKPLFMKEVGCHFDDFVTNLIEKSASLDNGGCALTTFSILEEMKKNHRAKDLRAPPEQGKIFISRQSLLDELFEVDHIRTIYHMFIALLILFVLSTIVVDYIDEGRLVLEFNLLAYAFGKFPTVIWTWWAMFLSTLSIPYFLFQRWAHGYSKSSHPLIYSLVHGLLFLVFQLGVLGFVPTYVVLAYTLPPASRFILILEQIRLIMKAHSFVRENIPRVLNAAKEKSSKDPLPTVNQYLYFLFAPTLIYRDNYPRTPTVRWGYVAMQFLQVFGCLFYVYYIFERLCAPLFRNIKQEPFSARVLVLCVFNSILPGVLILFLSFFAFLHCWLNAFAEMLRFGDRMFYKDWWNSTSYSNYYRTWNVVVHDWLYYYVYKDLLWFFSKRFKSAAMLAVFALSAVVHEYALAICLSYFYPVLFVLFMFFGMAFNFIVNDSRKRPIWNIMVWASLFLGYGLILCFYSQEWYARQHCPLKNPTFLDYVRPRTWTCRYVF
Protocol: The test products or the placebo are incubated in the presence of the macrophages for 24 hours at the concentration of 10^-5 M. The efficacy of these compounds is evaluated by calculating the ACAT activity of the macrophages incubated in the presence of a product relative to that of macrophages incubated in the presence of the placebo and is therefore expressed as a percentage inhibition.

[2] = system: hypercholesterolemic hamsters; assay: Effect in hypercholesterolemic hamsters (total plasma cholesterol); assay type: in vivo, Syrian golden hamsters; details: orally, 10 mg/kg/day
Protocol: Syrian golden hamsters were subjected to a 0.2% hypercholesterolemic diet for 3 weeks. They were then treated orally either by the vehicle for the compounds tested (control group), or by a reference product, or by an original product at the dose of 10 mg/kg/day for 2 weeks. At the end of the treatment, the total cholesterol was measured in the plasma.

[3] = target: T1, acyl CoA-cholesterol-acyl transferase (ACAT); assay: Determination of ACAT: inhibition of esterification of free intracellular cholesterol in macrophage line J 774; assay type: cell-based
human LDLs = assay: Modification of the LDLs by copper sulfate (MDA production, lipid peroxidation); assay type: biochemical; details: 24 hours, copper sulfate 5×10^-6 M; probucol as reference
Protocol: The human LDLs are incubated for 24 hours in the presence of copper sulfate (5×10^-6 M) with or without the test compounds (concentrations between 10^-7 M and 10^-4 M). After incubation, the peroxidation of the LDLs is evaluated by electrophoresis on agar gel and by the formation of one of the products of lipid peroxidation: malondialdehyde (MDA) according to the technique described by […] et al. (J. Clin. Invest. 77, 641-644, 1986).

**Q.** For `CCCCCCCCCC(C)C(=O)Nc1cc(C)c(O)c(C)c1C` (stereo not drawn) [Example 4, 2,3,6-Trimethyl-4-(2-methylundecanamido)phenol], which inhibition at 10 µM [1] is on record?
**A.** 91%

**Q.** `CCCCCCCCCC(C)(C)C(=O)Nc1cc(C)c(O)c(C)c1C` [Example 14, 2,3,6-Trimethyl-4-(2,2-dimethylundecanamido)phenol] was tested. Which inhibition at 10 µM [1] did it give?
**A.** 92%

**Q.** For `CCCCCCCCCCC(C)(C)C(=O)Nc1cc(C)c(O)c(C)c1C` [Example 15, 2,3,6-Trimethyl-4-(2,2-dimethyldodecanamido)phenol], which inhibition at 10 µM [1] is on record?
**A.** 93%

**Q.** How did the inhibition at 10 µM [1] turn out when `CCCCCCCCCCCC(C)(C)C(=O)Nc1cc(C)c(O)c(C)c1C` [Example 16, 2,3,6-Trimethyl-4-(2,2-dimethyltridecanamido)phenol] was run?
**A.** 96%

**Q.** `CCCCCCCC/C=C\CCCCCCC(C)C(=O)Nc1cc(C)c(O)c(C)c1C` (stereo not drawn) [Example 20, 2,3,6-Trimethyl-4-(2-methyl-9-octadecenamido)phenol cis isomer] was tested. Which “hypocholesterolemiant activity, level of total plasma cholesterol” value ([2]; 15 days (2 weeks), 0.2% hypercholesterolemic diet) did it give?
**A.** normalizes the level of cholesterol in the hypercholesterolemic animals

**Q.** And the “hypocholesterolemiant activity compared with reference products (Ref. 1 and Ref. 2)” value ([2]; same conditions)?
**A.** considerably higher than that of the reference products tested

**Q.** And the inhibition at 10 µM [1]?
**A.** 95%

**Q.** With `CCCCC/C=C\C/C=C\CCCCCCCC(=O)Nc1cc(C)c(O)c(C)c1C` [Example 21, 2,3,6-Trimethyl-4-(9,12-octadecadienamido)phenol cis, cis isomer] as the compound, how does the inhibition at 10 µM [1] read?
**A.** 90%

**Q.** Which inhibition at 10 µM [1] does the source give for `CCCCCC=CCC=CCC=CCCCCC(=O)Nc1cc(C)c(O)c(C)c1C` [Example 23, 2,3,6-Trimethyl-4-(6,9,12-octadecatrienamido)phenol] here?
**A.** 94%

**Q.** With `CCCCCCCCCCC1(C(=O)Nc2cc(C)c(O)c(C)c2C)CCCC1` [Example 57, 2,3,6-Trimethyl-4-[(1-decyl-cyclopent-1-yl)carboxamido]phenol] as the compound, how does the inhibition at 10 µM [1] read?
**A.** 98%

**Q.** Which inhibition at 10 µM [1] does the source give for `CCCCC/C=C\C/C=C\CCCCCCC(C)C(=O)Nc1cc(C)c(O)c(C)c1C` (stereo not drawn) [Example 58, 2,3,6-Trimethyl-4-(2-methyl-9,12-octadecadienamido)phenol, cis, cis isomer] here?
**A.** 97%

**Q.** With `CCCCCCCC/C=C\CCCCCCCC(=O)Nc1c(OC)cc(OC)cc1OC` [Ref. 1, 2,4,6-trimethoxy-(9-(Z)octadecenamido)benzene] as the compound, how does the IC50 [3] read?
**A.** 3 µM

**Q.** What about the inhibition at 10 µM [1] of the same compound?
**A.** 75%

**Q.** What about the “antioxidant activity towards human LDLs (in words)” value (human LDLs) of the same compound?
**A.** completely lack this activity

**Q.** `CCCCCCCCCCC(C)(C)C(=O)Nc1c(OC)cc(OC)cc1OC` [Ref. 2, 2,4,6-trimethoxy-(2,2-dimethyldodecanamido)benzene] was tested. Which “antioxidant activity towards human LDLs (in words)” value (human LDLs) did it give?
**A.** completely lack this activity
